System: SEM cells
Assay: cell viability relative to DMSO control; higher = less cytotoxic
Settings: 48 h
Summary of the method: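 Leukemia cells (NOMO1 or SEM, 500 cells/well; P12-Ichikawa, 1000 cells/well) were seeded in 5 μl in 1536-well plates after at least four passages of adaptation to each medium. They received library compounds in DMSO by pin dosing, 11 threefold points from 47 μM to 0.79 nM. Luminescence with CellTiter-Glo One was read after 48 h at 37°C. Viability is stated per plate relative to DMSO wells, with cell-free wells as background.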

[1] = HPLM + 10% dialyzed FBS, 0.000781 µM
[2] = HPLM + 10% dialyzed FBS, 0.00234 µM
[3] = HPLM + 10% dialyzed FBS, 0.00702 µM
[4] = HPLM + 10% dialyzed FBS, 0.0211 µM
[5] = HPLM + 10% dialyzed FBS, 0.0632 µM
[6] = HPLM + 10% dialyzed FBS, 0.19 µM
[7] = HPLM + 10% dialyzed FBS, 0.569 µM
[8] = HPLM + 10% dialyzed FBS, 1.71 µM
[9] = HPLM + 10% dialyzed FBS, 5.12 µM
[10] = HPLM + 10% dialyzed FBS, 15.4 µM
[11] = HPLM + 10% dialyzed FBS, 46.1 µM
[12] = RPMI 5 mM glucose + 10% FBS, 0.000781 µM
[13] = RPMI 5 mM glucose + 10% FBS, 0.00234 µM
[14] = RPMI 5 mM glucose + 10% FBS, 0.00702 µM
[15] = RPMI 5 mM glucose + 10% FBS, 0.0211 µM
[16] = RPMI 5 mM glucose + 10% FBS, 0.0632 µM
[17] = RPMI 5 mM glucose + 10% FBS, 0.19 µM
[18] = RPMI 5 mM glucose + 10% FBS, 0.569 µM
[19] = RPMI 5 mM glucose + 10% FBS, 1.71 µM
[20] = RPMI 5 mM glucose + 10% FBS, 5.12 µM
[21] = RPMI 5 mM glucose + 10% FBS, 15.4 µM
[22] = RPMI 5 mM glucose + 10% FBS, 46.1 µM
[23] = RPMI 5 mM glucose + 10% dialyzed FBS, 0.000781 µM
[24] = RPMI 5 mM glucose + 10% dialyzed FBS, 0.00234 µM
[25] = RPMI 5 mM glucose + 10% dialyzed FBS, 0.00702 µM
[26] = RPMI 5 mM glucose + 10% dialyzed FBS, 0.0211 µM
[27] = RPMI 5 mM glucose + 10% dialyzed FBS, 0.0632 µM
[28] = RPMI 5 mM glucose + 10% dialyzed FBS, 0.19 µM
[29] = RPMI 5 mM glucose + 10% dialyzed FBS, 0.569 µM
[30] = RPMI 5 mM glucose + 10% dialyzed FBS, 1.71 µM
[31] = RPMI 5 mM glucose + 10% dialyzed FBS, 5.12 µM
[32] = RPMI 5 mM glucose + 10% dialyzed FBS, 15.4 µM
[33] = RPMI 5 mM glucose + 10% dialyzed FBS, 46.1 µM

| SMILES | cell viability [1] [%] | cell viability [2] [%] | cell viability [3] [%] | cell viability [4] [%] | cell viability [5] [%] | cell viability [6] [%] | cell viability [7] [%] | cell viability [8] [%] | cell viability [9] [%] | cell viability [10] [%] | cell viability [11] [%] | cell viability [12] [%] | cell viability [13] [%] | cell viability [14] [%] | cell viability [15] [%] | cell viability [16] [%] | cell viability [17] [%] | cell viability [18] [%] | cell viability [19] [%] | cell viability [20] [%] | cell viability [21] [%] | cell viability [22] [%] | cell viability [23] [%] | cell viability [24] [%] | cell viability [25] [%] | cell viability [26] [%] | cell viability [27] [%] | cell viability [28] [%] | cell viability [29] [%] | cell viability [30] [%] | cell viability [31] [%] | cell viability [32] [%] | cell viability [33] [%] |
| --- | --- | --- | --- | --- | --- | --- | --- | --- | --- | --- | --- | --- | --- | --- | --- | --- | --- | --- | --- | --- | --- | --- | --- | --- | --- | --- | --- | --- | --- | --- | --- | --- | --- |
| CN(C)CCCC1(c2ccc(F)cc2)OCc2cc(C#N)ccc21 (stereo not given) | 94.8 | 101 | 103 | 106 | 100 | 94.5 | 91.7 | 96.7 | 83.6 | 86.9 | 73.6 | 91.5 | 99.4 | 89.4 | 99.1 | 86.5 | 96.6 | 82.4 | 93.1 | 74.2 | 90.2 | 78.1 | 109 | 109 | 106 | 108 | 113 | 120 | 84.1 | 105 | 70.7 | 92.2 | 76 |
| CC1(C)CC\C2=C(/O1)C3=C(C=CC=C3)C(=O)C2=O | 103 | 117 | 86.2 | 112 | 113 | 110 | 98.8 | 94.7 | 95 | 78.9 | 4.79 | 127 | 115 | 94.1 | 124 | 129 | 117 | 117 | 102 | 108 | 76.3 | 3.64 | 105 | 121 | 95.4 | 102 | 114 | 119 | 100 | 84.5 | 72.9 | 55.8 | 2.69 |
| CNC(=O)c1ccc2c(c1)NC(=O)/C2=C(\Nc1cccc(CN(C)C)c1)c1ccccc1 | 74.4 | 93.6 | 98.8 | 109 | 85.3 | 89.9 | 78.1 | 57.7 | 4.44 | 23.4 | 1.26 | 97 | 94.9 | 97.3 | 106 | 93.5 | 89.7 | 94.5 | 4.33 | 3.4 | 1.5 | 1.29 | 78.4 | 92.3 | 97.5 | 92.1 | 87.2 | 108 | 81.4 | 35.4 | 3.62 | 1.76 | 1.28 |
| NC1=NC(=O)N2CC12 (stereo not given) | 84.2 | 79.8 | 87.7 | 86.3 | 87.2 | 76.5 | 94.9 | 60.6 | 34.9 | 3.13 | 2.28 | 106 | 82.3 | 86.8 | 104 | 85.1 | 82.6 | 85.2 | 43 | 25.6 | 2.22 | 2.07 | 77.3 | 79.6 | 82.5 | 78.7 | 79.3 | 69.3 | 84.1 | 51.4 | 23.9 | 1.65 | 1.54 |
| CCOC(=O)N1CCN(/[N+]([O-])=N/Oc2cc(O/N=[N+](\[O-])N3CCN(C(=O)OCC)CC3)c([N+](=O)[O-])cc2[N+](=O)[O-])CC1 | 90.7 | 86.6 | 93 | 98.6 | 117 | 115 | 122 | 74.4 | 119 | 117 | 116 | 129 | 110 | 118 | 137 | 142 | 138 | 136 | 101 | 142 | 145 | 128 | 117 | 113 | 130 | 145 | 166 | 138 | 134 | 108 | 113 | 142 | 122 |
| Cc1cc(Nc2ncc3c(n2)N(C)C(=O)N(c2cc(NC(=O)c4cccc(C(F)(F)F)c4)ccc2C)C3)n(C)n1 | 88 | 105 | 101 | 88.2 | 115 | 82.3 | 50.1 | 17.8 | 10.8 | 5.81 | 3.72 | 101 | 114 | 111 | 95 | 116 | 79.4 | 40.2 | 11.9 | 7.97 | 5.5 | 3.3 | 108 | 117 | 114 | 93.8 | 128 | 81.3 | 41 | 11.5 | 6.61 | 4.65 | 2.51 |
| N[S+](=O)([O-])c1ccc(Nc2nc(OCC3CCCCC3)c3[nH]cnc3n2)cc1 | 103 | 117 | 106 | 113 | 101 | 115 | 43 | 24 | 23.8 | 16.4 | 3.57 | – | – | – | – | – | – | – | – | – | – | – | 109 | 134 | 114 | 120 | 112 | 109 | 49.6 | 21 | 21.2 | 14.4 | 2.04 |
